Measured values published in ChEMBL document CHEMBL5465560, “Selectivity Literature for EUbOPEN Chemogenomic Library” (2024).
One block for each compound: values may come before it.

How the values were obtained:
[1] = biological target: T1, Tyrosine-protein kinase TXK (Homo sapiens) (UniProt P42681); assay: Selectivity interaction (KinomeScan (DiscoverX)) EUB0001049a TXK; settings: at 1 µM
T1 sequence (whole entry): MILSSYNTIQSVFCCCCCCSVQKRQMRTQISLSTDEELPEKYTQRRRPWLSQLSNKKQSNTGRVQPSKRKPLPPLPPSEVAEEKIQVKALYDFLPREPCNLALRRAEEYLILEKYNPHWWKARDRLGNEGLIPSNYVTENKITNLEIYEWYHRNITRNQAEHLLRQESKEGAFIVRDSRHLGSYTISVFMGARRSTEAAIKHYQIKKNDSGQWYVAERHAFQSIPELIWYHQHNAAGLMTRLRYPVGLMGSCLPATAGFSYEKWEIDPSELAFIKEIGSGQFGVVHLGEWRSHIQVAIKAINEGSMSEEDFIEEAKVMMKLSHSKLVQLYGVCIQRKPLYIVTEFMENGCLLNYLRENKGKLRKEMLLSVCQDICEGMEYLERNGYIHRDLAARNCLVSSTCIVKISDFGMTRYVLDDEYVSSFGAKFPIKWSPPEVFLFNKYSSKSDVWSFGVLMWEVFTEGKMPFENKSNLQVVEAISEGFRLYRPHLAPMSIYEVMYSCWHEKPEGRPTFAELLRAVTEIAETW

[2] = biological target: T2, Cyclin-dependent kinase 11A (Homo sapiens) (UniProt Q9UQ88); assay: Selectivity interaction (ActivX KiNativ screen (kinase selectivity in THP-1 cell lysates)) EUB0000639a CDK11A; assay type: subcellular; settings: lysate, at 1 µM
T2 sequence (whole entry): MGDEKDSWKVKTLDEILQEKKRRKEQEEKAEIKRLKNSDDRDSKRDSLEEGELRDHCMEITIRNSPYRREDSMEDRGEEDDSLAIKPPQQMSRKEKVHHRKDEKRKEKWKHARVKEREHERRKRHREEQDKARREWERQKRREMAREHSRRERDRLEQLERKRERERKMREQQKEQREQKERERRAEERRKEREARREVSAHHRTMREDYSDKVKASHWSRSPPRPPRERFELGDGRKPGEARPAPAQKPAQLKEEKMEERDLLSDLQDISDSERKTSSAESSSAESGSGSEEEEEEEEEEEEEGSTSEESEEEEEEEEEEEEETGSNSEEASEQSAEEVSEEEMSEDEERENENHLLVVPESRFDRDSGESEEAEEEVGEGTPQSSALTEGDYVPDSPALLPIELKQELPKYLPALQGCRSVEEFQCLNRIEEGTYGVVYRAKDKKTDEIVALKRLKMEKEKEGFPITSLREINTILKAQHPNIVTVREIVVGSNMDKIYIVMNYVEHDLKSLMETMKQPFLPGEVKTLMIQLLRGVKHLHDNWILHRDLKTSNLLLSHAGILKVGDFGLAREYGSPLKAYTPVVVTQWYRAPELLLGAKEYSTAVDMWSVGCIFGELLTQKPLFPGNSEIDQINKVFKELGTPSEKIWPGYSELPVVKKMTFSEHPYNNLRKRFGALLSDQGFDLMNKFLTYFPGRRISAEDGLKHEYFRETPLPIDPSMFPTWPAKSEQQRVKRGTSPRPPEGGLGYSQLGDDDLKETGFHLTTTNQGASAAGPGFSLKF

[3] = biological target: Tyrosine-protein kinase SYK (Homo sapiens, UniProt P43405); assay: Selectivity interaction (ActivX KiNativ screen (kinase selectivity in THP-1 cell lysates)) EUB0000639a SYK; assay type: subcellular; settings: lysate, at 0.04 µM
[4] = biological target: Tyrosine-protein kinase Lyn (Homo sapiens, UniProt P07948); assay: Selectivity interaction (ActivX KiNativ screen (kinase selectivity in THP-1 cell lysates)) EUB0000639a LYN; assay type: subcellular; settings: lysate, at 5 µM
[5] = biological target: Gastrin/cholecystokinin type B receptor (Homo sapiens, UniProt P32239); assay: Selectivity interaction (Cholecystokinin B receptor binding assay, human recombinant ) EUB0000877a CCKBR
[6] = biological target: Aurora kinase A (Homo sapiens, UniProt O14965); assay: Selectivity interaction (Kinase panel (33PanQinase(R) Activity Assay)) EUB0000877a STK6
[7] = biological target: Fibroblast growth factor receptor 1 (Homo sapiens, UniProt P11362); assay: Selectivity interaction (Kinase panel (literature)) EUB0001199aCl FGFR1; settings: at 1 µM
[8] = biological target: Serine/threonine-protein kinase 26 (Homo sapiens, UniProt Q9P289); assay: Selectivity interaction (Kinase panel (Z-LYTE Assay)) EUB0001632a STK26; settings: at 10 µM
[9] = biological target: Mitogen-activated protein kinase 3 (Homo sapiens, UniProt P27361); assay: Selectivity interaction (KinomeScan (DiscoverX)) EUB0000695a MAPK3; settings: at 100 nM
[10] = biological target: Nociceptin receptor (Homo sapiens) (UniProt P41146); assay: Selectivity interaction (Eurofins CEREP Diversity Profile (receptors and ion channels)) EUB0000279b OPRL1; settings: at 10 µM
[11] = biological target: T3, Mitogen-activated protein kinase 12 (Homo sapiens) (UniProt P53778); assay: Selectivity interaction (KinomeScan (DiscoverX)) EUB0000595a MAPK12; settings: at 10 µM
T3 sequence (whole entry): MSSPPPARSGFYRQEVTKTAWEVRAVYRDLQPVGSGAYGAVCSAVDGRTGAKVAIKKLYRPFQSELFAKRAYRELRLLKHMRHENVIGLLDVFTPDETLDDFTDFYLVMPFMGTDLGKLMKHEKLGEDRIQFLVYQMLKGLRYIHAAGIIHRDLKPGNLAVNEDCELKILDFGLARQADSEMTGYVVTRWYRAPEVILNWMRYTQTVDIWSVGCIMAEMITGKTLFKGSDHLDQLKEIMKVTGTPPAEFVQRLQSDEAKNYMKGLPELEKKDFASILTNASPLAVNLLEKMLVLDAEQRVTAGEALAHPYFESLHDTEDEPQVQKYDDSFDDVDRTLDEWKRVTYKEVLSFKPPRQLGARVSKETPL

[12] = biological target: CDK4/Cyclin D3 (Homo sapiens) (UniProt P11802+P30281); assay: (§1) Selectivity interaction (KinomeScan (DiscoverX)) EUB0000092b CDK4; assay type: protein-complex assay; settings: at 10 µM
[13] = biological target: Cyclin-dependent kinase 4/cyclin D1 (Homo sapiens) (UniProt P11802+P24385); assay: as §1; assay type: protein-complex assay; settings: at 10 µM
[14] = biological target: Serine/threonine-protein kinase 32C (Homo sapiens) (UniProt Q86UX6); assay: Selectivity interaction (KinomeScan (DiscoverX)) EUB0000045b STK32C
[15] = biological target: Mitogen-activated protein kinase kinase kinase 10 (Homo sapiens) (UniProt Q02779); assay: Selectivity interaction (KinomeScan (DiscoverX)) EUB0000655a MAP3K10; settings: at 10 µM
[16] = biological target: 5'-AMP-activated protein kinase catalytic subunit alpha-2 (Homo sapiens) (UniProt P54646); assay: Selectivity interaction (KinomeScan (DiscoverX)) EUB0000311b PRKAA2; settings: at 1 µM
Chain of 5'-AMP-activated protein kinase catalytic subunit alpha-2 (Homo sapiens) (P54646 whole entry, looked up): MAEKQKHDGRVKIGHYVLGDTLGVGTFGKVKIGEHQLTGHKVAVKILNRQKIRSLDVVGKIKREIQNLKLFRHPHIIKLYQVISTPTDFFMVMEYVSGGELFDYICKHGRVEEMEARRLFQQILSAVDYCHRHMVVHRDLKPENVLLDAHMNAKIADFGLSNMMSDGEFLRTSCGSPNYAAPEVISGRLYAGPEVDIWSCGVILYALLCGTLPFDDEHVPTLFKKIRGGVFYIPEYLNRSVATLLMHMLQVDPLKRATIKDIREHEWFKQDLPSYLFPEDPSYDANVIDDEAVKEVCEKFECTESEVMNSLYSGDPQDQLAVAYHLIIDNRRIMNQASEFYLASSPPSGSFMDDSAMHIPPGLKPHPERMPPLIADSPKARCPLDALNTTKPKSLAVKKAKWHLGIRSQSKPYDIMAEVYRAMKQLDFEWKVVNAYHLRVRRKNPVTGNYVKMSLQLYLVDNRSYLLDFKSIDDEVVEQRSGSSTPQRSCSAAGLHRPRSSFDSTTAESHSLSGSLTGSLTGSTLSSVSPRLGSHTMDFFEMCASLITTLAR

Chain of Serine/threonine-protein kinase 32C (Homo sapiens) (Q86UX6 whole entry): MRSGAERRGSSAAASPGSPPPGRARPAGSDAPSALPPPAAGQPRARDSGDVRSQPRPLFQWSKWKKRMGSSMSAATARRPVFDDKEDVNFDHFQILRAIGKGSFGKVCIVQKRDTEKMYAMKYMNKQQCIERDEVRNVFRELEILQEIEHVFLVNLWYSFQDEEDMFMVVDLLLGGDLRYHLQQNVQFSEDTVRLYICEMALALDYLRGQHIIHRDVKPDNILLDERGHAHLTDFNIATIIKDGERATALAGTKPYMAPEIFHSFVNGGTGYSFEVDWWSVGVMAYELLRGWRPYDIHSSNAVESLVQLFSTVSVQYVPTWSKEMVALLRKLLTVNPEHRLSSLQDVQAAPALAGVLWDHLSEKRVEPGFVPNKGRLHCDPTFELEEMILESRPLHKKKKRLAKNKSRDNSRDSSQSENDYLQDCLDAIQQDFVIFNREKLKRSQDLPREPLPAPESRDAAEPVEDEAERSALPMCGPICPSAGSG
Chain of Nociceptin receptor (Homo sapiens) (P41146 whole entry): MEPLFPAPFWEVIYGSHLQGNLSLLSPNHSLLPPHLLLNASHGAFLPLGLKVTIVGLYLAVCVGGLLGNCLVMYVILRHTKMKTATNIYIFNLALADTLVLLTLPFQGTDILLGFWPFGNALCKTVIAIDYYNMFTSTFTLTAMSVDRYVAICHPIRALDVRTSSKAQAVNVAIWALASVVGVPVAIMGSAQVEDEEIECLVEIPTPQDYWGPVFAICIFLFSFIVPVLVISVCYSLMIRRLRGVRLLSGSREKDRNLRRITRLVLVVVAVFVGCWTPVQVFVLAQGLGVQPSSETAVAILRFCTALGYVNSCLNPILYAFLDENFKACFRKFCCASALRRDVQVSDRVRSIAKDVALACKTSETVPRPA
Chain of Aurora kinase A (O14965 whole entry): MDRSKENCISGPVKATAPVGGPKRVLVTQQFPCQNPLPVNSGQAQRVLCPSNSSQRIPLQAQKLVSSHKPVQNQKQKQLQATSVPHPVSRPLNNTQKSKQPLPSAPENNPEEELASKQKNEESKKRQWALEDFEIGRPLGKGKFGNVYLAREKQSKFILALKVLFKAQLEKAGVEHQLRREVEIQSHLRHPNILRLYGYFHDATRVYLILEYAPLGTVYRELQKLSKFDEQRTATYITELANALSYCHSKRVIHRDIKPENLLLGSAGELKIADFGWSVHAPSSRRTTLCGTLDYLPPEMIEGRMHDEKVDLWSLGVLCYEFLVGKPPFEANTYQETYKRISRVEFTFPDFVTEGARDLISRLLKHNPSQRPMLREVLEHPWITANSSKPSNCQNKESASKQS
Chain of Gastrin/cholecystokinin type B receptor (P32239 whole entry): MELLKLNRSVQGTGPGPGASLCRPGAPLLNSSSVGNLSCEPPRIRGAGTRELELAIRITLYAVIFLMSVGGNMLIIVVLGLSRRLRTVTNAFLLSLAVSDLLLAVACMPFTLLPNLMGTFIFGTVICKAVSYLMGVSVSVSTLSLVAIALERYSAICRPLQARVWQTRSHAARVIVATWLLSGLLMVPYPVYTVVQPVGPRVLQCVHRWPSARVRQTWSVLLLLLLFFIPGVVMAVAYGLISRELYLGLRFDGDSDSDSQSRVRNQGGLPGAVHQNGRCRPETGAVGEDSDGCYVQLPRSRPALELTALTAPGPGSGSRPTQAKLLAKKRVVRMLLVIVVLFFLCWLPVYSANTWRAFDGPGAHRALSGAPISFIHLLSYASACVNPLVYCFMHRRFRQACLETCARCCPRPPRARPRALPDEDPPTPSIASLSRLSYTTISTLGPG
Chain of Mitogen-activated protein kinase 3 (P27361 whole entry): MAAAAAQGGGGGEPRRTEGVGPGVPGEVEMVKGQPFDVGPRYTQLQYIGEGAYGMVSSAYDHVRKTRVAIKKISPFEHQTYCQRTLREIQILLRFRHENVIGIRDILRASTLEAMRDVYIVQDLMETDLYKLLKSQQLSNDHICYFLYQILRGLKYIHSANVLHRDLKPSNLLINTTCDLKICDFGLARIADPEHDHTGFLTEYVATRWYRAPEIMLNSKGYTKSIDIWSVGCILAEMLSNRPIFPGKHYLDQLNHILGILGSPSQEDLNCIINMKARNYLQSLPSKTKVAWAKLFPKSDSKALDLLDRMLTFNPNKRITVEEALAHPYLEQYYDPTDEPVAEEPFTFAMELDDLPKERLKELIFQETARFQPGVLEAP
Chain of Mitogen-activated protein kinase kinase kinase 10 (Homo sapiens) (Q02779 whole entry, looked up): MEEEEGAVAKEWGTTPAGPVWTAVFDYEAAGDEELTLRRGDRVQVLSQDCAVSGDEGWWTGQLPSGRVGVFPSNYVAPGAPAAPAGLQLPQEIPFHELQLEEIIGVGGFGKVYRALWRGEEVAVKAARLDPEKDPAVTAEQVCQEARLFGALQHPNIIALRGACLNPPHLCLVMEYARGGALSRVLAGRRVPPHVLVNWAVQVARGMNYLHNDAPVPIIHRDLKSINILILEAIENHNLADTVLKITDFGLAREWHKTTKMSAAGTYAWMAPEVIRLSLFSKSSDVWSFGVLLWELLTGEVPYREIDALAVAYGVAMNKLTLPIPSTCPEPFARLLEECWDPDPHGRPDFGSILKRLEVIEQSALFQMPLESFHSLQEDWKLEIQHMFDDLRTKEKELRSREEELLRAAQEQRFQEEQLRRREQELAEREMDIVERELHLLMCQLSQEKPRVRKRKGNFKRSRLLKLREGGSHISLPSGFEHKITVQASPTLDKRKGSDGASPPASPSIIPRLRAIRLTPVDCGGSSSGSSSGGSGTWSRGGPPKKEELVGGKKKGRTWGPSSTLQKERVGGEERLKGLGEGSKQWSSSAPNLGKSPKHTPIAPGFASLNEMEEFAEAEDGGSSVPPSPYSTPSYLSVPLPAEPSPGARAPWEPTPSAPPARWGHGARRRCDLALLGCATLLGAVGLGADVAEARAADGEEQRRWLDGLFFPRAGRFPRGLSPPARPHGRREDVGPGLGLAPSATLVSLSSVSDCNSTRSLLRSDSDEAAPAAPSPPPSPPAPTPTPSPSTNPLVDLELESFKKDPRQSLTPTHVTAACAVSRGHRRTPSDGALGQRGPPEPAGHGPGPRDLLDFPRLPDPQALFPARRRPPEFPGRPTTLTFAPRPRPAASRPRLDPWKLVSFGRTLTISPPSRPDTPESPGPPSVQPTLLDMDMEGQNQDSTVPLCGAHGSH
Chain of Fibroblast growth factor receptor 1 (P11362 22-822 limits assumed): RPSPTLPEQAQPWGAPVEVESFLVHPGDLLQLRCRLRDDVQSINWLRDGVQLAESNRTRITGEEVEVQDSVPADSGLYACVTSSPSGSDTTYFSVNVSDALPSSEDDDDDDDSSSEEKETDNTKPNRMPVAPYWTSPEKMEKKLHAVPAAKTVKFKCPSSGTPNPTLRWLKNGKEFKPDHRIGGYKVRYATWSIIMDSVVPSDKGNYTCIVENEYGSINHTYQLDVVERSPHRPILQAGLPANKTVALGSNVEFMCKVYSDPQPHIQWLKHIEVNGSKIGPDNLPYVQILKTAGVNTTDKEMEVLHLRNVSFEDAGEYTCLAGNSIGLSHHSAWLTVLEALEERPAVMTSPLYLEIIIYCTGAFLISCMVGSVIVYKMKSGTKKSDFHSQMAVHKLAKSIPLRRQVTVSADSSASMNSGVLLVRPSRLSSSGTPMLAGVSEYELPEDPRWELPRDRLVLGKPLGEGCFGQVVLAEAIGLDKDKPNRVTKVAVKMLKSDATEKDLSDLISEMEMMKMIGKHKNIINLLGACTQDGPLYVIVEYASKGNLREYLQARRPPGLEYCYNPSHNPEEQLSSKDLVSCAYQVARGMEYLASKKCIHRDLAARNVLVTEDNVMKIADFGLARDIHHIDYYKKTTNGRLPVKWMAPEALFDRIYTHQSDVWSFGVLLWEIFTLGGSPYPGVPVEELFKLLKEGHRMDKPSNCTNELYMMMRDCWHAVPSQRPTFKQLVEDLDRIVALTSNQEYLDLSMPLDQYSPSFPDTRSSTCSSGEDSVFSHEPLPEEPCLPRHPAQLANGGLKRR
Chain of Tyrosine-protein kinase Lyn (P07948 2-512 limits assumed): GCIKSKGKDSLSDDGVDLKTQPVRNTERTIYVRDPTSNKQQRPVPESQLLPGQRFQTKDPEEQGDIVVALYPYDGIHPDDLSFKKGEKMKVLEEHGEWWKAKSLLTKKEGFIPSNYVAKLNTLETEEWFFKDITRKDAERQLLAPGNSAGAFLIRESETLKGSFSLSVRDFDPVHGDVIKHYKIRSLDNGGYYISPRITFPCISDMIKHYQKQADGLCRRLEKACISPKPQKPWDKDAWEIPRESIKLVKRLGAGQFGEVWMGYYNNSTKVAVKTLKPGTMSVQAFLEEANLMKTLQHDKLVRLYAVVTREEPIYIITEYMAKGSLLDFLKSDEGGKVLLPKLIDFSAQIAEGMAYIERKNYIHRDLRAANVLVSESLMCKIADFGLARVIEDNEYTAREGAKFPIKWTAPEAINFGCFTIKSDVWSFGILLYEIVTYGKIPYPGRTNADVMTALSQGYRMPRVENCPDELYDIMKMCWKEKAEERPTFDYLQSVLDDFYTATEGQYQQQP

SMILES: COc1cc(Nc2nc(C)cc(-c3cnn4nc(OC)ccc34)n2)cc(C(F)(F)F)c1
% of control [1]: 91%

SMILES: Cc1cc(F)c(C(=O)Nc2cccc(-c3nncn3C(C)C)n2)cc1-n1cnc(C2CC2)c1
% of control [9]: 97%

SMILES: CC(=O)c1cc(-c2ccccc2OCC2CC2)c2ncccn12
% of control [10]: 88%

SMILES: COCC(=O)NC/C=C/c1ccc2ncnc(Nc3ccc(Oc4ccc(C)nc4)c(C)c3)c2c1 [CP-724714]
% of control [11]: 100%

SMILES: CCC(=O)N1CCN(c2ccc(-n3c(=O)ccc4cnc5ccc(-c6cnc7ccccc7c6)cc5c43)cc2C(F)(F)F)CC1
% of control [12]: 87%
% of control [13]: 100%

SMILES: C=CC(=O)Nc1cc(-n2c(=O)ccc3cnc4ccc(-c5ccc(NS(C)(=O)=O)cc5)cc4c32)ccc1C
% of control ([14]; at 1 µM): 100%
% of control ([14]; at 10 µM): 100%

SMILES: CN(C)CCOc1ccc(-c2nc(-c3ccncc3)c(-c3ccc4c(c3)CC/C4=N\O)[nH]2)cc1
% of control [15]: 92%

Continued, values first:

% of inhibition [2]: 6.7%
% of inhibition [3]: 5.5%
% of inhibition [4]: -9.2%
SMILES: CC[C@@H]1[C@H](F)C(=O)N[C@@H]1COc1nccc2cc(C(N)=O)c(OC)cc12 [ZIMLOVISERTIB]

IC50 [5]: > 30 µM
IC50 [6]: > 10 µM
SMILES: CCC(=O)N1CC[C@H](Nc2ncnc3c2CN(c2cnc(OC)c(C(F)(F)F)c2)CC3)C1 [LENIOLISIB]

% of inhibition [7]: 3%
SMILES: CN1Cc2nccc(-c3cn(C)nc3-c3ccc(F)cc3)c2C1=O

% of control [8]: 2.09%
SMILES: Cn1cc(-n2cnc3c(NCc4nc5cc(Cl)c(Cl)cc5[nH]4)nc(N4CCOCC4)nc32)cn1

% of control [16]: 0%
SMILES: CCc1ccccc1C(=O)Nc1n[nH]c2c(C)c(F)c(C3C(C#N)=C(C)N(C)C(C)=C3C#N)cc12 [BAY-3827]
